Drawing on patent publication US10251394B2, “Molecules having pesticidal utility, and intermediates, compositions, and processes, related thereto” (Dow AgroSciences LLC, priority 2016, dated 2019), this text covers pest or weed control and mortality for 17 compounds.

The subject of experiment [1] is Cabbage Looper (Trichoplusia ni). Put plainly: Bioassay on Cabbage Looper (CL), 128-well diet tray assay. In kind it is in vivo. As to conditions: for pest or weed control at 50 µg/cm2: Cabbage Looper, Table ABC, read-out: CL rating. The procedure: (§1) Example A: Bioassays on Beet Armyworm (Spodoptera Exigua, LAPHEG) (“BAW”), Corn Earworm (Helicoverpa Zea, HELIZE) (“CEW”), and Cabbage Looper (Trichoplusia Ni, TRIPNI) (“CL”)
(§2) Certain molecules disclosed in this document were tested against BAW, CEW, and CL using procedures described in the following examples. In the reporting of the results, the “BAW, CEW, & CL Rating Table” was used (See Table Section).
Bioassays on CL were conducted using a 128-well diet tray assay. One to five second instar CL larvae were placed in each well (3 mL) of the diet tray that had been previously filled with 1 mL of artificial diet to which 50 μg/cm^2 of the test molecule (dissolved in 50 μL of 90:10 acetone-water mixture) had been applied (to each of eight wells) and then allowed to dry. Trays were covered with a clear self-adhesive cover and held at 25° C., 14:10 light-dark for five to seven days. Percent mortality was recorded for the larvae in each well; activity in the eight wells was then averaged. The results are indicated in the table entitled “Table ABC: Biological Results” (See Table Section).
(§3) Bioassays on BAW and CL were conducted according to the procedures outlined in Example A: Bioassays on Beet Armyworm (“BAW”) and Cabbage Looper (“CL”) using the indicated concentrations.

The test system of experiment [2] is Beet Armyworm (Spodoptera exigua). As to the kind of experiment: Bioassay on Beet Armyworm (BAW), 128-well diet tray assay. It is filed as in vivo. As to conditions: for pest or weed control at 50 µg/cm2: Beet Armyworm, Table ABC, read-out: BAW rating. How it is done: as §1, §2
Bioassays on BAW were conducted using a 128-well diet tray assay. One to five second instar BAW larvae were placed in each well (3 mL) of the diet tray that had been previously filled with 1 mL of artificial diet to which 50 μg/cm^2 of the test molecule (dissolved in 50 μL of 90:10 acetone-water mixture) had been applied (to each of eight wells) and then allowed to dry. Trays were covered with a clear self-adhesive cover and held at 25° C., 14:10 light-dark for five to seven days. Percent mortality was recorded for the larvae in each well; activity in the eight wells was then averaged. The results are indicated in the table entitled “Table ABC: Biological Results” (See Table Section).
as §3

For the compound `C[C@@H](NC(=O)c1ccc(/C(F)=C/C(c2cc(Cl)c(Cl)c(Cl)c2)C(F)(F)F)cc1Cl)C(=O)NCC(F)F` (stereo partly drawn) [F32, 2-Chloro-N—((R)-1-((2,2-difluoroethyl)amino)-1-oxopropan-2-yl)-4-((Z)-1,4,4,4-tetrafluoro-3-(3,4,5-trichlorophenyl)but-1-en-1-yl)benzamide], the pest or weed control at 50 µg/cm2 in experiment [1] and in experiment [2] was 50 to 100% each time.

`CN(CC(F)(F)F)C(=O)CNC(=O)c1ccc(/C(F)=C/C(c2cc(Cl)c(Cl)c(Cl)c2)C(F)(F)F)cc1Cl` (stereo not shown) [F47, (Z)-2-Chloro-N-(2-(methyl(2,2,2-trifluoroethyl)amino)-2-oxoethyl)-4-(1,4,4,4-tetrafluoro-3-(3,4,5-trichlorophenyl)but-1-en-1-yl)benzamide]: the pest or weed control at 50 µg/cm2 in experiment [1] and in experiment [2] was 50 to 100% throughout.

For the compound `CN(CC(F)(F)F)C(=O)CNC(=O)c1ccc(/C(F)=C/C(c2cc(Cl)c(Cl)c(Cl)c2)C(F)(F)F)cc1Br` (stereo not shown) [F48, (Z)-2-Bromo-N-(2-(methyl(2,2,2-trifluoroethyl)amino)-2-oxoethyl)-4-(1,4,4,4-tetrafluoro-3-(3,4,5-trichlorophenyl)but-1-en-1-yl)benzamide], the pest or weed control at 50 µg/cm2 in experiment [1] and in experiment [2] was 50 to 100% in each case.

Take `C[C@@H](NC(=O)c1ccc(/C(F)=C/C(c2cc(Cl)c(Cl)c(Cl)c2)C(F)(F)F)cc1Cl)C(=O)N(C)CC(F)(F)F` (stereo partly drawn) [F49, 2-Chloro-N—((R)-1-(methyl(2,2,2-trifluoroethyl)amino)-1-oxopropan-2-yl)-4-((Z)-1,4,4,4-tetrafluoro-3-(3,4,5-trichlorophenyl)but-1-en-1-yl)benzamide]: the pest or weed control at 50 µg/cm2 in experiment [1] and in experiment [2] was 50 to 100% in each case.

Take `C[C@@H](NC(=O)c1ccc(/C(F)=C/C(c2cc(Cl)c(Cl)c(Cl)c2)C(F)(F)F)cc1Br)C(=O)N(C)CC(F)(F)F` (stereo partly drawn) [F50, 2-Bromo-N—((R)-1-(methyl(2,2,2-trifluoroethyl)amino)-1-oxopropan-2-yl)-4-((Z)-1,4,4,4-tetrafluoro-3-(3,4,5-trichlorophenyl)but-1-en-1-yl)benzamide]: the pest or weed control at 50 µg/cm2 in experiment [1] and in experiment [2] was 50 to 100% throughout.

Turning to `CN(CC(F)(F)F)C(=O)CNC(=O)c1ccc(/C(F)=C/C(c2cc(Cl)c(Cl)c(Cl)c2)C(F)(F)F)cc1C(F)(F)F` (stereo not shown) [F51, (Z)—N-(2-(Methyl(2,2,2-trifluoroethyl)amino)-2-oxoethyl)-4-(1,4,4,4-tetrafluoro-3-(3,4,5-trichlorophenyl)but-1-en-1-yl)-2-(trifluoromethyl)benzamide], the pest or weed control at 50 µg/cm2 in experiment [1] and in experiment [2] was 50 to 100% in each case.

Regarding `CC(C)(NC(=O)c1ccc(/C(F)=C/C(c2cc(Cl)c(Cl)c(Cl)c2)C(F)(F)F)cc1C(F)(F)F)C(=O)NCC(F)(F)F` (stereo not shown) [F54, (Z)—N-(2-Methyl-1-oxo-1-((2,2,2-trifluoroethyl)amino)propan-2-yl)-4-(1,4,4,4-tetrafluoro-3-(3,4,5-trichlorophenyl)but-1-en-1-yl)-2-(trifluoromethyl)benzamide], the pest or weed control at 50 µg/cm2 in experiment [1] and in experiment [2] was 50 to 100% each time.

Consider `C[C@@H](NC(=O)c1ccc(/C(F)=C/C(c2cc(Cl)c(Cl)c(Cl)c2)C(F)(F)F)cc1C(F)(F)F)C(=O)N(CC(F)(F)F)NC(=O)OC(C)(C)C` (stereo partly drawn) [F55, tert-Butyl 2-((2R)-2-(4-((Z)-1,4,4,4-tetrafluoro-3-(3,4,5-trichlorophenyl)but-1-en-1-yl)-2-(trifluoromethyl)benzamido)propanoyl)-2-(2,2,2-trifluoroethyl)hydrazinecarboxylate], for which the pest or weed control at 50 µg/cm2 in experiment [1] and in experiment [2] was 50 to 100% throughout.

As for `O=C(NC1(C(=O)CCC(F)(F)F)CC1)c1ccc(/C(F)=C/C(c2cc(Cl)c(Cl)c(Cl)c2)C(F)(F)F)cc1C(F)(F)F` (stereo not shown) [F56, (Z)-4-(1,4,4,4-Tetrafluoro-3-(3,4,5-trichlorophenyl)but-1-en-1-yl)-N-(1-(4,4,4-trifluorobutanoyl)cyclopropyl)-2-(trifluoromethyl)benzamide], the pest or weed control at 50 µg/cm2 in experiment [1] and in experiment [2] was 50 to 100% throughout.

On to `CC(F)(F)C(/C=C(\F)c1ccc(C(=O)NC2(C(=O)NCC(F)(F)F)CC2)c(C(F)(F)F)c1)c1cc(Cl)c(Cl)c(Cl)c1` (stereo not shown) [F58, (Z)-4-(1,4,4-Trifluoro-3-(3,4,5-trichlorophenyl)pent-1-en-1-yl)-N-(1-((2,2,2-trifluoroethyl)carbamoyl)cyclopropyl)-2-(trifluoromethyl)benzamide], for which the pest or weed control at 50 µg/cm2 in experiment [1] and in experiment [2] was 50 to 100% each time.

Consider `CC(F)(F)C(/C=C(\F)c1ccc(C(=O)NCC(=O)NCC(F)(F)F)c(C(F)(F)F)c1)c1cc(Cl)c(Cl)c(Cl)c1` (stereo not shown) [F62, (Z)—N-(2-Oxo-2-((2,2,2-trifluoroethyl)amino)ethyl)-4-(1,4,4-trifluoro-3-(3,4,5-trichlorophenyl)pent-1-en-1-yl)-2-(trifluoromethyl)benzamide], for which the pest or weed control at 50 µg/cm2 in experiment [1] and in experiment [2] was 50 to 100% each time.

For the compound `CCNC(=O)[C@@H](C)NC(=O)c1ccc(/C(F)=C/C(c2cc(Cl)c(Cl)c(Cl)c2)C(F)(F)F)cc1C(F)(F)F` (stereo partly drawn) [F63, N—((R)-1-(Ethylamino)-1-oxopropan-2-yl)-4-((Z)-1,4,4,4-tetrafluoro-3-(3,4,5-trichlorophenyl)but-1-en-1-yl)-2-(trifluoromethyl)benzamide], the pest or weed control at 50 µg/cm2 in experiment [1] and in experiment [2] was 50 to 100% throughout.

For `CCNC(=O)[C@@H](C)NC(=O)c1ccc(/C(F)=C/C(c2cc(Cl)c(Cl)c(Cl)c2)C(F)(F)F)cc1Cl` (stereo partly drawn) [F64, 2-Chloro-N—((R)-1-(ethylamino)-1-oxopropan-2-yl)-4-((Z)-1,4,4,4-tetrafluoro-3-(3,4,5-trichlorophenyl)but-1-en-1-yl)benzamide], the pest or weed control at 50 µg/cm2 in experiment [1] and in experiment [2] was 50 to 100% throughout.

In the case of `CC(NC(=O)CNC(=O)c1ccc(/C(F)=C/C(c2cc(Cl)c(Cl)c(Cl)c2)C(F)(F)F)cc1C(F)(F)F)C(F)(F)F` (stereo not shown) [F65, (Z)—N-(2-Oxo-2-((1,1,1-trifluoropropan-2-yl)amino)ethyl)-4-(1,4,4,4-tetrafluoro-3-(3,4,5-trichlorophenyl)but-1-en-1-yl)-2-(trifluoromethyl)benzamide], the pest or weed control at 50 µg/cm2 in experiment [1] and in experiment [2] was 50 to 100% each time.

For the compound `CC(NC(=O)CNC(=O)c1ccc(/C(F)=C/C(c2cc(Cl)c(Cl)c(Cl)c2)C(F)(F)F)cc1Cl)C(F)(F)F` (stereo not shown) [F66, (Z)-2-Chloro-N-(2-oxo-2-((1,1,1-trifluoropropan-2-yl)amino)ethyl)-4-(1,4,4,4-tetrafluoro-3-(3,4,5-trichlorophenyl)but-1-en-1-yl)benzamide], the pest or weed control at 50 µg/cm2 in experiment [1] and in experiment [2] was 50 to 100% throughout.

One may read the mortality as the share of the test organisms that died. On to `C[C@@H](NC(=O)c1ccc(/C(F)=C/C(c2cc(Cl)c(Cl)c(Cl)c2)C(F)(F)F)cc1I)C(=O)NCC(F)(F)F` (stereo partly drawn) [F67, 2-Iodo-N—((R)-1-oxo-1-((2,2,2-trifluoroethyl)amino)propan-2-yl)-4-((Z)-1,4,4,4-tetrafluoro-3-(3,4,5-trichlorophenyl)but-1-en-1-yl)benzamide], for which the mortality at 0.05 µg/cm2 came to 100% in experiment [1] (168 h, 0.05 μg/cm^2 on artificial diet, second instar larvae, five to seven days, read-out: CL Percent control (or mortality)) and 100% in experiment [2] (168 h, 0.05 μg/cm^2 on artificial diet, second instar larvae, five to seven days, read-out: BAW Percent control (or mortality)). Besides, the mortality at 0.5 µg/cm2 in experiment [1] (168 h, 0.5 μg/cm^2 on artificial diet, second instar larvae, five to seven days, read-out: CL Percent control (or mortality)) was determined as 100%; in experiment [2] (168 h, 0.5 μg/cm^2 on artificial diet, second instar larvae, five to seven days, read-out: BAW Percent control (or mortality)), 100%. Besides, the mortality at 5 µg/cm2 is 100% in experiment [1] (168 h, 5 μg/cm^2 on artificial diet, second instar larvae, five to seven days, read-out: CL Percent control (or mortality)) and 100% in experiment [2] (168 h, 5 μg/cm^2 on artificial diet, second instar larvae, five to seven days, read-out: BAW Percent control (or mortality)). Besides, the pest or weed control at 50 µg/cm2 in experiment [1] and in experiment [2] was 50 to 100% throughout.

As to `CCC(F)(F)C(/C=C(\F)c1ccc(C(=O)NCC(=O)NCC(F)(F)F)c(C(F)(F)F)c1)c1cc(Cl)c(Cl)c(Cl)c1` (stereo not shown) [F87, (Z)—N-(2-Oxo-2-((2,2,2-trifluoroethyl)amino)ethyl)-4-(1,4,4-trifluoro-3-(3,4,5-trichlorophenyl)hex-1-en-1-yl)-2-(trifluoromethyl)benzamide], the pest or weed control at 50 µg/cm2 in experiment [1] and in experiment [2] was 50 to 100% each time.
